In patent US10987317B2, “Inhibition of glutaminase C” (Cornell University, priority 2009, dated 2021):

How the values were obtained:
[1] = test system: GA activity in SKBR3 cells; experiment: GA activity in mitochondrial fractions; format: cell-based, human; settings: 10 μM, phosphate-independent
Experimental: (§1) 100%=620 moles of glutamine hydrolyzed per minute per mole of enzyme. Data represent the average of 3 experiments (±s.d.). […] Following precipitation of the beads and re-suspension, the samples are analyzed by Western blotting with anti-V5 antibody. […] Data represent the average of 3 experiments (±s.d.). […] Data represent the average of 3 experiments (±s.d.). […] Data represent the average of 3 experiments (±s.d.). FIG. 3E NIH 3T3 cells transiently expressing Dbl are assayed for focus formation in the presence of 10 μM 968 alone or together with […] dimethyl α-ketoglutarate. […] 100%=680 nM glutamine hydrolyzed per minute per 10^5 cells. Data are the average of 3 experiments (=s.d.). […] 100%=750 nM glutamine hydrolyzed per minute per 10^5 cells. Data represent the average of 3 experiments (±s.d.).
(§2) FIGS. 4A-E illustrate the role of glutaminase C activity in cellular transformation. […] Data represent the average of 3 experiments (±s.d.). […] Data represent the average of 3 experiments (±s.d.). […] 100% represents the activity measured in untreated Dbl-transformed cells. The data represent the average of 2 experiments. […] 100% represents the activity measured in untreated SKBR3 cells. The data represent the average of 2 experiments. […] Data represent the average of 3 experiments (±s.d.).
FIGS. 11A-E illustrate the effects of different treatments on GA activity. […] The addition of Pi stimulated the GA activity in control 3T3 cells, Dbl-expressing cells, and Cdc42(F28L)-expressing cells by ˜6-fold, 2-fold, and 3-fold, respectively. 100% represents the Pi-stimulated activity measured for Dbl-transformed cells that are not treated with 968. Data is the average of 3 experiments (±s.d.). […] The addition of Pi stimulated the GA activity of HMECs, MDA-MB231 cells, and SKBR3 cells by ˜5-fold, 2-fold, and 1.4-fold, respectively. […] The data are plotted as the percentage of GA activity measured for untreated SKBR3 cells and represent the average of 2 experiments. […] 100% represents the P1-stimulated activity measured for untreateDbl-transformed cells. […]

[2] = target: T1, V5-tagged GAC from Dbl-transformed NIH 3T3 cells (Mus musculus, UniProt D3Z7P3); experiment: GA activity of immunoprecipitated V5-GAC; format: cell-based; settings: absence of phosphate
T1 construct: expressed in transfected cells; host or cells: NIH 3T3 cells stably expressing oncogenic Dbl
T1 sequence (D3Z7P3 55-603 isoform D3Z7P3-2 limits assumed): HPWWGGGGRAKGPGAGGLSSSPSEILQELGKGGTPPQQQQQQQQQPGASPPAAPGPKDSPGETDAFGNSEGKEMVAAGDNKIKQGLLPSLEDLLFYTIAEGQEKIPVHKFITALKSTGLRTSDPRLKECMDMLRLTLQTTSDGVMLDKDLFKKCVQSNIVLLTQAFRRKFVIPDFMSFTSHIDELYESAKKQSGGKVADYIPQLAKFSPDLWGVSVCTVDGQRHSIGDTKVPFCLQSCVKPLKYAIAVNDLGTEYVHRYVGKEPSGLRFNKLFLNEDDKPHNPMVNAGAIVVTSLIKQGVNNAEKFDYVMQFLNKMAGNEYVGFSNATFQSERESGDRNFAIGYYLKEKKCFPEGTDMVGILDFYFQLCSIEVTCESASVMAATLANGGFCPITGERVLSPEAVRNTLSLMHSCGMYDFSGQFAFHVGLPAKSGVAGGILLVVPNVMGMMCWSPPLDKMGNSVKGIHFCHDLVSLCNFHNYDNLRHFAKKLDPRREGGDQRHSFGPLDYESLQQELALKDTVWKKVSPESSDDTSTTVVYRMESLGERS
Source text: as §2
NIH 3T3 cells or NIH 3T3 cells stably expressing the Dbl oncogene, were transiently transfected with DNA encoding a V5-tagged GAC. The cells were then harvested and the ectopically expressed GAC was isolated by immunoprecipitation via the V5 tag. The VS-GAC obtained from one of the Dbl samples was additionally treated with alkaline phosphtase under dephosphorylation conditions. The samples were then assayed for glutaminase activity in the absence of phosphate (top panel) and the relative expression levels of VS-GAC was determined by Western blotting using an anit-V5 antibody (bottom panel).
NIH 3T3 cells stably expressing oncogenic Dbl were transiently transfected with DNA encoding VS-tagged GAC, and cells were treated with either 968 or BA-968 ([…]) as indicated for 48 hours. The cells were then harvested and the ectopically expressed GAC was isolated by immunoprecipitation via the V5 tag. The samples were then assayed for glutaminase activity in the absence of phosphate (top panel) and the relative expression levels of VS-GAC was determined by Western blotting using an anti-V5 antibody (bottom panel).

[3] = test system: GA activity in Dbl- and Cdc42(F28L)-expressing NIH 3T3 cells; experiment: GA activity in mitochondrial fractions of transformed fibroblasts; format: cell-based; settings: 10 μM
Experimental: as §1, §2
FIGS. 11A-E illustrate the effects of different treatments on GA activity. […] The addition of Pi stimulated the GA activity in control 3T3 cells, Dbl-expressing cells, and Cdc42(F28L)-expressing cells by ˜6-fold, 2-fold, and 3-fold, respectively. 100% represents the Pi-stimulated activity measured for Dbl-transformed cells that are not treated with 968. Data is the average of 3 experiments (±s.d.). […] The addition of Pi stimulated the GA activity of HMECs, MDA-MB231 cells, and SKBR3 cells by ˜5-fold, 2-fold, and 1.4-fold, respectively. 100% represents the Pi-stimulated activity for SKBR3 cells that were not treated with 968. Data are the average of 3 experiments (±s.d.). […] Mitochondrial fractions are prepared from equal numbers of cells and assayed for GA activity in the presence or absence of 133 mM Pi. The data are plotted as the percentage of GA activity measured for untreated SKBR3 cells and represent the average of 2 experiments. […] 100% represents the P1-stimulated activity measured for untreateDbl-transformed cells. The data represent the average of 2 experiments. […] 100% represents the Pi-stimulated activity for untreated SKBR3 cells. The data represent the average of 2 experiments.
Mitochondrial preparations were obtained using the mitochondria isolation kit from QIAGEN (Cat #37612). A suspension containing 2×10^7 cells was transferred into a 50 ml conical tube and centrifuged at 500×g for 10 minutes at 4° C. […]

HMECs = experiment: Growth of normal mammary epithelial cells; format: cell-based, human; settings: 10 μM, 6 days

CN(C)c1ccc(C2Nc3ccc4ccccc4c3C3=C2C(=O)CC(C)(C)C3)cc1Br (stereo not drawn) [Compound 968, 5-[3-bromo-4-(dimethylamino)phenyl]-2,2-dimethyl-2,3,5,6-tetrahydrobenzo[a]]
basal GA activity [1]: sensitive | GA activity IPed from Dbl-transformed cells ([2]; 10 μM): inhibited | GAC activity after treatment of cells (FIG. 19) ([2]; cells treated 10 mM for 48 hours): effective inhibitors | GA activity of transformed cells [3]: inhibits | sensitivity of basal versus phosphate-stimulated GA activity ([3]; 133 mM Pi): basal activity being more sensitive | growth of HMECs (HMECs): little effect
